Measurements from patent publication US20250381161A1, “COMPOSITIONS AND METHODS FOR TREATING HEARING AND OCULAR DISORDERS” (Anida Pharma Inc., priority 2022, published 2025).

Assay: Release of compound 1 in artificial tear medium from dialysis tubes into artificial tear fluid, quantified via HPLC
Type: physicochemical
Conditions: room temperature, 100 rpm
Experimental: 0.5 mL of unformulated compound 1 dissolved in artificial tear medium (i.e., equivalent to physiological buffer solution/PBS) was filled into dialysis tubes (Spectra/Por® Biotech CE MWCO 100-500, 10 mm), sealed and immersed into containers filled with 5 mL artificial tear fluid (ATF) serving as release medium (Table 2). The samples were incubated at room temperature and shaken at 100 rpm. After 0 hours, 0.5 hours, 1 hour, 2 hours, 4 hours and 24 hours, samples were withdrawn and the amount of released compound 1 was quantified via HPLC.

Question: What does the source list for CC/C=C\C[C@H](O)\C=C/C=C/C=C/[C@H](O)C/C=C\C/C=C\CCC(=O)[O-].[Na+] [Compound 1, Sodium (4Z,7Z,10R,11E,13E,15Z,17S, 19Z)-10,17-dihydroxydocosa-4,7,11,13,15,19-hexaenoate]?
Answer: Release (%) (time point 0.5 h): 0.8%; Release (%) (time point 1 h): 2%; Release (%) (time point 2 h): 7%; Release (%) (time point 4 h): 17%; Release (%) (time point 24 h): 59%
